From patent US20190233409A1, “SUBSTITUTED 2,3,4,5-TETRAHYDRO-1H-PYRIDO[4,3-B]INDOLES, METHODS FOR USE THEREOF” (priority 2017, published 2019)
Structures can show the parent of a compound that is named as a salt.

test system: calcium canals regulated by the intracellular calcium depot; assay: Histamine-induced calcium stream in SK-N-SH cells, Phase 2 (lowering of intracellular calcium concentration); format: cell-based; details: Homo sapiens, 10 μM histamine, Fura 2 AM, Phase 2: discharge of intraplasmatic calcium

Structure (SMILES) | EC50
CN1CCc2c(c3ccccc3n2/C=C\c2ccccc2)C1 [1.1(1), cis-2-methyl-5-(2-phenylethenyl)-2,3,4,5-tetrahydro-1H-pyrido[4,3-b]indole] | 0.18 µM
CN1CCc2c(c3ccccc3n2/C=C/c2ccccc2)C1 [1.1(2), trans-2-methyl-5-(2-phenylethenyl)-2,3,4,5-tetrahydro-1H-pyrido[4,3-b]indole] | 2.13 µM
CN1CCc2c(c3ccccc3n2/C=C/c2ccncc2)C1 [1.1(3), trans-2-methyl-5-[2-(pyridin-4-yl)ethenyl]-2,3,4,5-tetrahydro-1H-pyrido[4,3-b]indole] | > 10 µM
CN1CCc2c(c3ccccc3n2/C=C\c2cccnc2)C1 [1.1(4), cis-2-methyl-5-[2-(pyridin-3-yl)ethenyl]-2,3,4,5-tetrahydro-1H-pyrido[4,3-b]indole] | > 10 µM
CN1CCc2c(c3ccccc3n2/C=C/c2ccccn2)C1 [1.1(5), trans-2-methyl-5-[2-(pyridin-2-yl)ethenyl]-2,3,4,5-tetrahydro-1H-pyrido[4,3-b]indole] | > 10 µM
CN1CCc2c(c3cc(F)ccc3n2/C=C\c2ccccc2)C1 [1.1.1(1), cis-2-methyl-5-(2-phenylethenyl)-8-fluoro-2,3,4,5-tetrahydro-1H-pyrido[4,3-b]indole] | 0.15 µM
CN1CCc2c(c3cc(F)ccc3n2/C=C\c2cccnc2)C1 [1.1.1(2), cis-2-methyl-5-[2-(pyridin-3-yl)ethenyl]-8-fluoro-2,3,4,5-tetrahydro-1H-pyrido[4,3-b]indole] | > 10 µM
Cc1ccc2c(c1)c1c(n2/C=C\c2ccccc2)CCN(C)C1 [1.1.1(3), cis-2,8-dimethyl-5-(2-phenylethenyl)-2,3,4,5-tetrahydro-1H-pyrido[4,3-b]indole] | 0.154 µM
CN1CCc2c(c3cc(F)ccc3n2/C=C\c2cccc(F)c2)C1 [1.1.1(6), cis-2-methyl-5-[2-(3-fluorophenyl)ethenyl]-8-fluoro-2,3,4,5-tetrahydro-1H-pyrido[4,3-b]indole] | 0.19 µM
CN1CCc2c(c3ccccc3n2CCc2ccncc2)C1 [1.2(2)HCl, 2-methyl-5-[2-(pyridin-4-yl)ethyl]-2,3,4,5-tetrahydro-1H-pyrido[4,3-b]indole hydrochloride] | 0.5 µM
CN1CCc2c(c3ccccc3n2CCc2cccnc2)C1 [1.2(3)HCl, 2-methyl-5-[2-(pyridin-3-yl)ethyl]-2,3,4,5-tetrahydro-1H-pyrido[4,3-b]indole hydrochloride] | 0.412 µM
CN1CCc2c(c3ccccc3n2CCc2ccccn2)C1 [1.2(4)HCl, 2-methyl-5-[2-(pyridin-2-yl)ethyl]-2,3,4,5-tetrahydro-1H-pyrido[4,3-b]indole hydrochloride] | 0.93 µM
Cc1ccc2c(c1)c1c(n2CCc2ccncc2)CCN(C)C1.Cl [1.2.1(2)HCl, 2,8-dimethyl-5-[2-(pyridin-4-yl)ethyl]-2,3,4,5-tetrahydro-1H-pyrido[4,3-b]indole hydrochloride] | 3.98 µM
Cc1ccc2c(c1)c1c(n2CCc2cccnc2)CCN(C)C1 [1.2.1(3)HCl, 2,8-dimethyl-5-[2-(pyridin-3-yl)ethyl]-2,3,4,5-tetrahydro-1H-pyrido[4,3-b]indole hydrochloride] | 0.579 µM
Cc1ccc2c(c1)c1c(n2CCc2ccccn2)CCN(C)C1.Cl [1.2.1(4)HCl, 2,8-dimethyl-5-[2-(pyridin-2-yl)ethyl]-2,3,4,5-tetrahydro-1H-pyrido[4,3-b]indole hydrochloride] | 10 µM
Cc1ccc2c(c1)c1c(n2CCc2cnccn2)CCN(C)C1 [1.2.1(6), 2,8-dimethyl-5-[2-(pyrazin-2-yl)ethyl]-2,3,4,5-tetrahydro-1H-pyrido[4,3-b]indole] | 7.94 µM
CN1CCc2c(c3cc(F)ccc3n2CCc2ccccc2)C1 [1.2.1(7)HCl, 2-methyl-5-(2-phenylethyl)-8 fluoro-2,3,4,5-tetrahydro-1H-pyrido[4,3-b]indole hydrochloride] | 0.13 µM
CN1CCc2c(c3cc(F)ccc3n2CCc2ccncc2)C1 [1.2.1(8)HCl, 2-methyl-5-[2-(pyridin-4-yl)ethyl]-8-fluoro-2,3,4,5-tetrahydro-1H-pyrido[4,3-b]indole hydrochloride] | 0.47 µM
CN1CCc2c(c3cc(F)ccc3n2CCc2cccnc2)C1 [1.2.1(9)HCl, 2-methyl-5-[2-(pyridin-3-yl)ethyl]-8-fluoro-2,3,4,5-tetrahydro-1H-pyrido[4,3-b]indole hydrochloride] | 0.297 µM
CN1CCc2c(c3cc(F)ccc3n2CCc2ccccn2)C1 [1.2.1(10)HCl, 2-methyl-5-[2-(pyridin-2-yl)ethyl]-8-fluoro-2,3,4,5-tetrahydro-1H-pyrido[4,3-b]indole hydrochloride] | 0.61 µM
Cc1ccc(CCn2c3c(c4cc(F)ccc42)CN(C)CC3)cn1 [1.2.1(11)HCl, 2-methyl-5-[2-(6-methylpyridin-3-yl)ethyl]-8-fluoro-2,3,4,5-tetrahydro-1H-pyrido[4,3-b]indole hydrochloride] | 0.73 µM
CN1CCc2c(c3cccc(F)c3n2CCc2ccccc2)C1 [1.2.2(1)HCl] | 0.25 µM
CN1CCc2c(c3ccccc3n2C#Cc2ccccc2)C1 [1.3(1), 2-methyl-5-phenylethynyl-2,3,4,5-tetrahydro-1H-pyrido[4,3-b]indole] | 10.1 µM
CN1CCc2c(c3ccccc3n2C#Cc2cccnc2)C1 [1.3(3), 2-methyl-5-(pyridin-3-ylethynyl)-2,3,4,5-tetrahydro-1H-pyrido[4,3-b]indole] | > 10 µM
CN1CCc2c(c3cc(F)ccc3n2C#Cc2cccnc2)C1 [1.3.1(3), 2-methyl-5-(pyridin-3-ylethynyl)-8-fluoro-2,3,4,5-tetrahydro-1H-pyrido[4,3-b]indole] | > 10 µM
Cc1ccc2c(c1)c1c(n2C#Cc2ccccc2)CCN(C)C1 [1.3.1(5), 2,8-dimethyl-5-phenylethynyl-2,3,4,5-tetrahydro-1H-pyrido[4,3-b]indole] | > 10 µM
Cc1ccc2c(c1)c1c(n2C#Cc2cccnc2)CCN(C)C1 [1.3.1(7), 2,8-dimethyl-5-(pyridin-3-ylethynyl)-2,3,4,5-tetrahydro-1H-pyrido[4,3-b]indole] | > 10 µM

test system: BALB/c male mice; assay: Passive Avoidance of Mice in a Shuttle Chamber, memory disturbed by scopolamine (Example 7); format: in vivo; details: scopolamine 0.3 mg/kg, injected 30 minutes before training
Protocol: Example 7. […] A shuttle chamber (Ugo Basile, Italy) consisted of two sections was used. […] The sections were connected via a hole which could be shut with a vertical door. The floor was made of transverse metal bars on which DC current impulses could be fed. Experiments were carried out on aged male mice of line BALB/c weighing 20-24 grams. […] Each group consisted of at least 8 animals. The animals were placed in the light section, and the latent period of the first entry into the dark chamber was registered. Then the vertical door was closed and the animal was punished by 0.6 mA DC current for 3 seconds. After that the animal was carried back to its living cell. In 22-24 hours the same animal was placed in the light section of the shuttle chamber once again and the latent period before its entry into the dark section, the total time of its stay in the light section and the number of entries into the dark section were registered. Each observation lasted for 5 minutes. The experiment was carried out during the day time in an isolated laboratory using white noise at a level of about 70 decibel above the human hearing threshold. Scopolamine causes the disturbance of training (memory loss) which results in […]. The fact that 5-HT6 receptor antagonists can improve the learning ability that has been disturbed by scopolamine is regarded as evidence for their nootropic effect.

Structure (SMILES) | nootropic action (passive avoidance, FIGS. 2-4)
Cc1ccc2c(c1)c1c(n2CCc2ccncc2)CCN(C)C1.Cl [1.2.1(2)HCl, 2,8-dimethyl-5-[2-(pyridin-4-yl)ethyl]-2,3,4,5-tetrahydro-1H-pyrido[4,3-b]indole hydrochloride] | exhibit a nootropic action which is the most prominent
Cc1ccc2c(c1)c1c(n2CCc2ccccn2)CCN(C)C1.Cl [1.2.1(4)HCl, 2,8-dimethyl-5-[2-(pyridin-2-yl)ethyl]-2,3,4,5-tetrahydro-1H-pyrido[4,3-b]indole hydrochloride] | exhibit a nootropic action which is the most prominent

test system: BALB/c male mice; assay: Passive Avoidance of Mice in a Shuttle Chamber, scopolamine or MK-801 (Example 8); format: in vivo; details: scopolamine 0.3 mg/kg or MK-801 0.1 mg/kg
Protocol: Example 7. […] A shuttle chamber (Ugo Basile, Italy) consisted of two sections was used. […] The sections were connected via a hole which could be shut with a vertical door. The floor was made of transverse metal bars on which DC current impulses could be fed. Experiments were carried out on aged male mice of line BALB/c weighing 20-24 grams.
On the first day of the experiment 30 minutes before training the mice were injected intraintestinally with physiological solution of scopolamine (0.3 mg/kg) or scopolamine in combination with antagonists of 5-HT6 receptors 1.2.1(2)HCl, 1.2.1(4)HCl or 1.2.1(5)HCl. Each group consisted of at least 8 animals. The animals were placed in the light section, and the latent period of the first entry into the dark chamber was registered. Then the vertical door was closed and the animal was punished by 0.6 mA DC current for 3 seconds. After that the animal was carried back to its living cell. In 22-24 hours the same animal was placed in the light section of the shuttle chamber once again and the latent period before its entry into the dark section, the total time of its stay in the light section and the number of entries into the dark section were registered. Each observation lasted for 5 minutes.
The experiment was carried out in the same way as in example 7. On the first day 30 minutes before training the mice were injected intra-intestinally with a physiological solution of scopolamine (0.3 mg/kg) or MK-801(0.1 mg/kg).

Structure (SMILES) | nootropic action (passive avoidance, FIGS. 5-10)
O=S(=O)(c1ccccc1)c1cnc2c(N3CCNCC3)cccc2c1 [SB-742457] | inactive

test system: SHK male mice; assay: Recognition of New Objects by Mice Under Scopolamine and MK-801; format: in vivo; details: scopolamine 1 mg/kg and MK-801 0.2 mg/kg
Protocol: The experiments were carried out in a closed cross shaped labyrinth which consisted of 4 peripheral sections connected with the central chamber via a 7×7 cm hole. The labyrinth was made of black plastic and its sections were of 14×14×14 cm size. The top cover of the labyrinth was transparent.
A mouse was placed in the central section of the labyrinth and allowed to investigate the environment. A mouse was considered to have entered a section once all of its four paws were inside the chamber. A test was considered to be completed when the mouse had moved 12 times between the sections, having made a total of 13 visits. The floor of the labyrinth was cleaned after each animal.
With each mouse the test was carried out twice with 1 hour interval.
During the first test, each section of the labyrinth contained a circular plastic cup of 3 cm height and 7 cm diameter. During the second test the cover in each of the two opposing sections was replaced by a conical glass bulb of 7 cm height and 4 cm across the bottom. The time that the mice spent in each section of the labyrinth was registered and the index of new object recognition was calculated as the ratio of the time spent in the sections with the bulbs to the time spent in all sections of the labyrinth. If no preference is given to the sections with new objects the index is 0.5.
When new objects appear the mice spend more time in the section containing them that results in an increased recognition index. Scopolamine (1 mg/kg) and MK-801 (0.2 mg/kg) disturbed learning (memory) that leads to lowering of the recognition index.

Structure (SMILES) | nootropic action (new object recognition, FIG. 13-14)
O=S(=O)(c1ccccc1)c1cnc2c(N3CCNCC3)cccc2c1 [SB-742457] | nootropic action
CC12CC3CC(C)(C1)CC(N)(C3)C2 [memantine] | nootropic action
